Laboratory results as given in the supplement of paper PMC10307832.

How the values were obtained:
Test in all cases: relative viability (nuclei count vs DMSO), 5 days (fraction); higher = more cells survive
[1] = compound: N#CC1(c2ccc(NC(=O)c3cccnc3NCc3ccncc3)cc2)CCCC1 [Apatinib] + CS(=O)(=O)N1CCN(Cc2cc3nc(-c4cccc5[nH]ncc45)nc(N4CCOCC4)c3s2)CC1 [Pictilisib] (partner 1 µM)
Summary of the method: (§1)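 One day after seeding in 1536-well plates, lung cancer cell lines were dosed by pin tool. Dosing was either single-drug or a fixed anchor-drug dose plus five library-drug doses (not always all listed) in √10 steps. After 5 days, nuclei were stained in one fix-and-stain step and counted on 4× images, and relative viability is the nuclei count of treated wells over that of vehicle wells, given as the median of duplicate plates.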

[2] = compound: CN(C)C(=N)NC(=N)N [Metformin] + Nc1nc2[nH]cc(CCc3ccc(C(=O)N[C@@H](CCC(=O)O)C(=O)O)cc3)c2c(=O)[nH]1 [Pemetrexed] (partner 0.2 µM)
Summary of the method: as §1

[3] = compound: N#CC1(c2ccc(NC(=O)c3cccnc3NCc3ccncc3)cc2)CCCC1 [Apatinib] + O=C(CCCCCCC(=O)Nc1ccccc1)NO [Vorinostat] (partner 1 µM)
Summary of the method: as §1

[4] = compound: CN(C)C(=N)NC(=N)N [Metformin] + O=C(c1cc(Cc2n[nH]c(=O)c3ccccc23)ccc1F)N1CCN(C(=O)C2CC2)CC1 [Olaparib] (partner 8 µM)
Summary of the method: as §1

Cell Line	relative viability ([1]; first compound 0.08 µM)	relative viability ([1]; first compound 0.253 µM)	relative viability ([1]; first compound 0.8 µM)	relative viability ([1]; first compound 2.53 µM)	relative viability ([1]; first compound 8 µM)	relative viability ([2]; first compound 10 µM)	relative viability ([2]; first compound 31.62 µM)	relative viability ([2]; first compound 100 µM)	relative viability ([2]; first compound 316.23 µM)	relative viability ([2]; first compound 1000 µM)	relative viability ([3]; first compound 0.08 µM)	relative viability ([3]; first compound 0.253 µM)	relative viability ([3]; first compound 0.8 µM)	relative viability ([3]; first compound 2.53 µM)	relative viability ([3]; first compound 8 µM)	relative viability ([4]; first compound 10 µM)	relative viability ([4]; first compound 31.62 µM)	relative viability ([4]; first compound 100 µM)	relative viability ([4]; first compound 316.23 µM)	relative viability ([4]; first compound 1000 µM)
NCI-H647	0.492	0.5	0.419	0.349	0.395	0.127	0.137	0.16	0.146	0.148	0.596	0.868	0.473	0.669	0.343	0.375	0.394	0.415	0.44	0.375
NCI-H1793	0.277	0.23	0.391	0.256	0.342	1.16	0.826	1.23	0.874	1.22	0.948	0.779	0.773	0.522	0.628	0.702	1.1	0.813	0.781	0.901
NCI-H1437	0.468	0.441	0.377	0.392	0.284	0.347	0.336	0.343	0.352	0.317	0.854	0.928	0.71	0.554	0.534	0.579	0.59	0.593	0.595	0.576
SW 1573	0.588	0.476	0.548	0.517	0.535	0.728	0.817	0.668	0.725	0.743	0.993	1.07	0.702	0.47	0.446	0.441	0.468	0.471	0.381	0.352
SW 900	–	–	–	–	–	0.52	0.479	–	0.507	0.477	0.577	0.586	0.482	0.355	0.454	0.853	0.945	–	0.892	0.917
LCLC-103H	0.651	0.639	0.554	0.545	0.546	0.446	0.485	0.434	0.446	0.445	0.812	0.773	0.772	0.683	0.709	0.727	0.713	0.76	0.737	0.777
BEN	0.557	0.526	0.55	0.464	0.468	1.11	1.08	0.733	0.812	0.64	0.584	0.62	0.609	0.589	0.536	1.11	1.18	1.23	1.1	0.708
EKVX	0.454	0.394	0.435	0.341	0.401	–	0.301	0.417	0.316	0.294	0.816	0.752	0.713	0.589	0.57	–	0.729	0.769	0.71	0.683
NCI-H2347	0.51	0.673	0.748	0.552	0.596	0.406	0.482	0.408	0.465	0.399	0.655	0.569	0.619	0.542	0.557	0.585	0.506	0.376	0.465	0.512
IA-LM	0.384	0.266	0.363	0.325	0.287	–	–	–	–	–	0.975	0.968	0.958	0.765	0.92	0.864	0.94	0.85	0.658	0.917
NCI-H1792	0.309	0.278	0.334	0.191	0.243	0.968	0.862	0.952	0.697	0.903	–	–	–	–	–	0.463	0.39	0.498	0.358	0.402
NCI-H2342	–	–	–	–	–	–	1.13	0.751	0.786	0.752	0.625	0.655	0.763	0.685	0.72	–	0.375	0.372	0.418	0.358
NCI-H1648	–	–	–	–	–	–	0.664	0.876	0.67	0.713	0.682	0.503	0.403	0.54	0.276	–	1.14	0.502	1.07	1.04
EBC-1	0.36	0.345	0.299	0.247	0.157	–	–	–	–	–	–	–	–	–	–	0.68	0.733	0.73	0.728	0.721
ABC-1	–	1.01	0.637	0.752	0.552	–	–	–	–	–	–	1.2	1.07	1.04	1.22	–	0.817	1.08	0.218	0.36
NCI-H1703	0.239	0.272	0.198	0.222	0.221	–	–	–	–	–	–	–	–	–	–	0.501	0.71	0.875	0.506	0.521
NCI-H1563	0.644	0.656	0.62	0.644	0.632	0.874	0.899	0.847	0.89	0.921	–	–	–	–	–	–	–	–	–	–
Calu-6	0.954	0.951	0.813	0.864	0.602	–	–	–	–	–	–	–	–	–	–	0.459	0.416	0.421	0.48	0.467
NCI-H1299	0.882	0.88	0.738	0.646	0.406	–	–	–	–	–	–	–	–	–	–	0.867	0.924	0.941	0.873	0.933
NCI-H727	0.328	0.306	0.358	0.364	0.367	–	–	–	–	–	1.18	–	1.23	1.08	0.999	0.641	0.599	0.582	–	0.577
A549	0.651	0.626	0.421	0.488	0.406	–	–	–	–	–	–	–	–	–	–	0.281	0.308	0.324	0.269	0.368
NCI-H522	–	–	–	–	–	1.15	1.21	1.25	1.12	1.46	1.02	1.02	0.875	0.672	0.816	0.721	0.752	0.745	0.652	0.698
